Reference: patent US9708334B2, “Substituted 2,4,5,6-tetrahydropyrrolo[3,4-c]pyrazole and 4,5,6,7-tetrahydro-2H-pyrazolo[4,3-c]pyridine compounds as GlyT1 inhibitors” (DART NEUROSCIENCE (CAYMAN) LTD., priority 2014, dated 2017)

Target: T1, GlyT1 (Homo sapiens, UniProt P48067)
T1 construct: expressed in transfected cells
T1 sequence (P48067 1-706): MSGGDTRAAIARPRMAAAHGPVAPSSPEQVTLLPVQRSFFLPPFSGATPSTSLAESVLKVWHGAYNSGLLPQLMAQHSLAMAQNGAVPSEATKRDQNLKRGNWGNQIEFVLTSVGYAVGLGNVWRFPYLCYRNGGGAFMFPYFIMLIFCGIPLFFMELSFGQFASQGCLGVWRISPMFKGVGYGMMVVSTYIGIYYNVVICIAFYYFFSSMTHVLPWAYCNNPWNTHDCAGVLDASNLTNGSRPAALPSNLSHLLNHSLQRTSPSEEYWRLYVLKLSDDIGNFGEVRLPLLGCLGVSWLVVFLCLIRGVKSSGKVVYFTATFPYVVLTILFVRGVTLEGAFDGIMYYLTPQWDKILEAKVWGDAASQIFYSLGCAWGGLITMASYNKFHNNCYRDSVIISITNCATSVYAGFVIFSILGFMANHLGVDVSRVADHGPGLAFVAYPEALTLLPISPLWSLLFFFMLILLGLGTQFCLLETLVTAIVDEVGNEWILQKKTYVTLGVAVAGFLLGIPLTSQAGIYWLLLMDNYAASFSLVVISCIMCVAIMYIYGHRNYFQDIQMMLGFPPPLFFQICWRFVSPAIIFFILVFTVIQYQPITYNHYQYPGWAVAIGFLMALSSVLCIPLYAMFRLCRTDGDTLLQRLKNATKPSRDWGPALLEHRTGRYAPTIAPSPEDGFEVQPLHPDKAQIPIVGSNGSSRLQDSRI
Test: Glycine Transporter 1 (GlyT1) uptake assay, scintillation proximity assay of [14C]-glycine uptake
Format: cell-based
Settings: SPA, four parameter logistic fit, read-out: GlyT1 (pIC50) (converted)
Method in brief: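 IC50 values derive from four-parameter logistic curves fitted to dose-response data. Uptake of [14C]-glycine measured in scintillation proximity format.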

| IC50 [nM] | Structure (SMILES) |
| --- | --- |
| < 100 | CS(=O)(=O)c1ccc(OCC(F)(F)F)c(C(=O)N2Cc3cn(-c4ccccc4)nc3C2)c1 [Example 102, 5-[5-Methanesulfonyl-2-(2 2 2-trifluoroethoxy)benzoyl]-2-phenyl-2H 4H 5H 6H-pyrrolo[3,4-c]pyrazole] |
| < 100 | C[C@H](Oc1ccc(C#N)c(Cl)c1C(=O)N1Cc2cn(-c3ccccc3F)nc2C1)C(F)(F)F [Example 269, 2-Chloro-3-[2-(2-fluorophenyl)-2H 4H 5H 6H-pyrrolo[3,4-c]pyrazole-5-carbonyl]-4-{[(2S)-1 1 1-trifluoropropan-2-yl]oxy}benzonitrile] |
| 1000 to 10000 | N#Cc1ccc(C2CCC2)c(C(=O)N2CCc3nn(-c4ccccc4)cc3C2)c1F [Example 180, 4-Cyclobutyl-2-fluoro-3-{2-phenyl-2H 4H 5H 6H 7H-pyrazolo[4,3-c]pyridine-5-carbonyl}benzonitrile] |
| < 100 | CS(=O)(=O)c1ccc(-c2cccc(F)c2)c(C(=O)N2Cc3cn(-c4ccncc4)nc3C2)c1 [Example 142, 4-{5-[2-(3-Fluorophenyl)-5-methanesulfonylbenzoyl]-2H 4H 5H 6H-pyrrolo[3,4-c]pyrazol-2-yl}pyridine] |
| 100 to 1000 | COc1c(C#N)ccc(OCC(F)F)c1C(=O)N1Cc2cn(-c3ccc(F)c(C)n3)nc2C1 [Example 534, 4-(2 2-Difluoroethoxy)-3-[2-(5-fluoro-6-methylpyridin-2-yl)-2H 4H 5H 6H-pyrrolo[3,4-c]pyrazole-5-carbonyl]-2-methoxybenzonitrile] |
| 1000 to 10000 | COc1c(C#N)ccc(C2(F)CCC(F)(F)CC2)c1C(=O)N1CCc2nn(-c3cccnc3)cc2C1 [Example 13, 2-Methoxy-3-[2-(pyridin-3-yl)-2H 4H 5H 6H 7H-pyrazolo[4,3-c]pyridine-5-carbonyl]-4-(1 4 4-trifluorocyclohexyl)benzonitrile] |
| < 100 | COc1cc(-n2cc3c(n2)CN(C(=O)c2cc(C#N)ccc2OC(C)C)C3)ccn1 [Example 369, 3-[2-(2-Methoxypyridin-4-yl)-2H 4H 5H 6H-pyrrolo[3,4-c]pyrazole-5-carbonyl]-4-(propan-2-yloxy)benzonitrile] |
| < 100 | C[C@H](Oc1ccc(C#N)c(Cl)c1C(=O)N1Cc2cn(-c3ccn(C)n3)nc2C1)C(F)(F)F [Example 293, 2-Chloro-3-[2-(1-methyl-1H-pyrazol-3-yl)-2H 4H 5H 6H-pyrrolo[3,4-c]pyrazole-5-carbonyl]-4-{[(2S)-1 1 1-trifluoropropan-2-yl]oxy}benzonitrile] |
| 100 to 1000 | COc1c(C#N)ccc(OC2COC2)c1C(=O)N1Cc2cn(-c3ccc(F)c(C)n3)nc2C1 [Example 537, 3-[2-(5-Fluoro-6-methylpyridin-2-yl)-2H 4H 5H 6H-pyrrolo[3,4-c]pyrazole-5-carbonyl]-2-methoxy-4-(oxetan-3-yloxy)benzonitrile] |
| < 100 | Cc1c(F)ccc(-n2cc3c(n2)CN(C(=O)c2cc(S(C)(=O)=O)ccc2OCC(C)C)C3)c1F [Example 67, 2-(2 4-Difluoro-3-methylphenyl)-5-[5-methanesulfonyl-2-(2-methylpropoxy)benzoyl]-2H 4H 5H 6H-pyrrolo[3,4-c]pyrazole] |
| 100 to 1000 | N#Cc1ccc(OCC(F)(F)F)c(C(=O)N2Cc3cn(-c4ccc(F)cc4)nc3C2)c1Cl [Example 28, 2-Chloro-3-[2-(4-fluorophenyl)-2H 4H 5H 6H-pyrrolo[3,4-c]pyrazole-5-carbonyl]-4-(2 2 2-trifluoroethoxy)benzonitrile] |
| 100 to 1000 | C[C@H](Oc1ccc(C#N)cc1C(=O)N1Cc2cn(CC3CC3)nc2C1)C(F)(F)F [Example 451, 3-[2-(Cyclopropylmethyl)-2H 4H 5H 6H-pyrrolo[3,4-c]pyrazole-5-carbonyl]-4-{[(2S)-1 1 1-trifluoropropan-2-yl]oxy}benzonitrile] |
| < 100 | COc1c(C#N)ccc(OC(C)C)c1C(=O)N1Cc2cn(-c3ccnc(C)c3)nc2C1 [Example 328, 2-Methoxy-3-[2-(2-methylpyridin-4-yl)-2H 4H 5H 6H-pyrrolo[3,4-c]pyrazole-5-carbonyl]-4-(propan-2-yloxy)benzonitrile] |
| 1000 to 10000 | CS(=O)(=O)c1ccc(OCC2CC2)c(C(=O)N2Cc3cnn(-c4cccc(C(F)(F)F)c4)c3C2)c1 [Example 159, 5-[2-(Cyclopropylmethoxy)-5-methanesulfonylbenzoyl]-1-[3-(trifluoromethyl)phenyl]-1H 4H 5H 6H-pyrrolo[3,4-c]pyrazole] |
| 100 to 1000 | C[C@H](Oc1ccc(C#N)cc1C(=O)N1Cc2cnn(-c3ccnnc3)c2C1)C(F)(F)F [Example 421, 3-[1-(Pyridazin-4-yl)-1H 4H 5H 6H-pyrrolo[3,4-c]pyrazole-5-carbonyl]-4-{[(2S)-1 1 1-trifluoropropan-2-yl]oxy}benzonitrile] |
| < 100 | COc1c(C#N)ccc(OC(C)C2CC2)c1C(=O)N1Cc2cn(-c3ccc(F)cc3)nc2C1 (stereo not shown) [Example 524, 4-(1-Cyclopropylethoxy)-3-[2-(4-fluorophenyl)-2H 4H 5H 6H-pyrrolo[3,4-c]pyrazole-5-carbonyl]-2-methoxybenzonitrile] |
| 100 to 1000 | CCS(=O)(=O)c1ccc(-c2cc(F)cc(F)c2)c(C(=O)N2Cc3cn(-c4cncc(F)c4)nc3C2)c1 [Example 572, 3-{5-[2-(3 5-Difluorophenyl)-5-(ethanesulfonyl)benzoyl]-2H 4H 5H 6H-pyrrolo[3,4-c]pyrazol-2-yl}-5-fluoropyridine] |
| 1000 to 10000 | COc1cc(-n2ncc3c2CN(C(=O)c2cc(C#N)ccc2O[C@@H](C)C(F)(F)F)C3)ccn1 [Example 365, 3-[1-(2-Methoxypyridin-4-yl)-1H 4H 5H 6H-pyrrolo[3,4-c]pyrazole-5-carbonyl]-4-{[(2S)-1 1 1-trifluoropropan-2-yl]oxy}benzonitrile] |
| < 100 | COc1c(C#N)ccc(O[C@@H](C)C(F)(F)F)c1C(=O)N1Cc2cn(-c3ccc(F)cc3)nc2C1 [Example 248, 3-[2-(4-Fluorophenyl)-2H 4H 5H 6H-pyrrolo[3,4-c]pyrazole-5-carbonyl]-2-methoxy-4-{[(2S)-1 1 1-trifluoropropan-2-yl]oxy}benzonitrile] |
| 100 to 1000 | C[C@H](Oc1ccc(C#N)cc1C(=O)N1Cc2cn(CC3CCC3)nc2C1)C(F)(F)F [Example 401, 3-[2-(Cyclobutylmethyl)-2H 4H 5H 6H-pyrrolo[3,4-c]pyrazole-5-carbonyl]-4-{[(2S)-1 1 1-trifluoropropan-2-yl]oxy}benzonitrile] |
| 100 to 1000 | COc1c(C#N)ccc(O[C@@H](C)C(F)(F)F)c1C(=O)N1CCc2[nH]nc(-c3ccc(C(F)(F)F)cc3)c2C1 [Example 257, 2-Methoxy-3-{3[4-(trifluoromethyl)phenyl]-1H 4H 5H 6H 7H-pyrazolo[4,3-c]pyridine-5-carbonyl}-4-{[(2S)-1 1 1-trifluoropropan-2-yl]oxy}benzonitrile] |
| < 100 | COc1c(C#N)ccc(O[C@@H](C)C(F)(F)F)c1C(=O)N1Cc2cn(-c3ncccc3C)nc2C1 [Example 272, 2-Methoxy-3-[2-(3-methylpyridin-2-yl)-2H 4H 5H 6H-pyrrolo[3,4-c]pyrazole-5-carbonyl]-4-{[(2S)-1 1 1-trifluoropropan-2-yl]oxy}benzonitrile] |
| < 100 | CC(C)(C)COc1ccc(S(C)(=O)=O)cc1C(=O)N1Cc2cn(-c3cccc(C(F)(F)F)c3F)nc2C1 [Example 49, 5-[2-(2 2-Dimethylpropoxy)-5-methanesulfonylbenzoyl]-2-[2-fluoro-3-(trifluoromethyl)phenyl]-2H 4H 5H 6H-pyrrolo[3,4-c]pyrazole] |
| < 100 | CC1(COc2ccc(S(C)(=O)=O)cc2C(=O)N2Cc3cn(-c4ccc(F)cc4)nc3C2)COC1 [Example 440, 2-(4-Fluorophenyl)-5-{5-methanesulfonyl-2-[(3-methyloxetan-3-yl)methoxy]benzoyl}-2H 4H 5H 6H-pyrrolo[3,4-c]pyrazole] |
| 100 to 1000 | COc1c(C#N)ccc(OCC(F)(F)F)c1C(=O)N1Cc2cn(-c3ccc(F)cn3)nc2C1 [Example 260, 3-[2-(5-Fluoropyridin-2-yl)-2H 4H 5H 6H-pyrrolo[3,4-c]pyrazole-5-carbonyl]-2-methoxy-4-(2 2 2-trifluoroethoxy)benzonitrile] |
| 100 to 1000 | N#Cc1ccc(C2CCCC2)c(C(=O)N2CCc3nn(-c4ccccc4)cc3C2)c1F [Example 175, 4-Cyclopentyl-2-fluoro-3-{2-phenyl-2H 4H 5H 6H 7H-pyrazolo[4,3-c]pyridine-5-carbonyl}benzonitrile] |
| < 100 | COc1c(C#N)ccc(OCC2CC2)c1C(=O)N1Cc2cn(-c3cncc(F)c3)nc2C1 [Example 319, 4-(Cyclopropylmethoxy)-3-[2-(5-fluoropyridin-3-yl)-2H 4H 5H 6H-pyrrolo[3,4-c]pyrazole-5-carbonyl]-2-methoxybenzonitrile] |
| 1000 to 10000 | Cc1cccc(-c2ccc(C#N)cc2C(=O)N2Cc3cn(-c4ccnc(C)c4)nc3C2)c1 [Example 564, 4-(3-Methylphenyl)-3-[2-(2-methylpyridin-4-yl)-2H 4H 5H 6H-pyrrolo[3,4-c]pyrazole-5-carbonyl]benzonitrile] |
